Test results published in paper PMC5664438, “The novel isoxazoline ectoparasiticide lotilaner (Credelio™): a non-competitive antagonist specific to invertebrates γ-aminobutyric acid-gated chloride channels (GABACls)” (Parasites & Vectors, 2017).
“Also recorded” adds a separate entry of the source. Read-outs that look alike come from different tables or passages of the source.

How the values were obtained:
[1] = test system: D. melanogaster S302 form; design: method as in PMID 24365472; details: cited from earlier work
Ls-GABA1 [2] = target: T1, Ls-GABA1 (Lepeophtheirus salmonis, UniProt A0A2H4NNJ4); test: Antagonist cumulative pre-application concentration-inhibition, TEVC on oocytes expressing Ls-GABA1; assay type: cell-based; details: for nH (Hill coefficient): concentration-inhibition curve
[3] = target: T2, DmS-GABA (wild type GABACl, RDLac) (Drosophila melanogaster, UniProt P25123); test: Antagonist cumulative pre-application concentration-inhibition, TEVC on oocytes expressing DmS-GABA; assay type: cell-based; details: for nH (Hill coefficient): concentration-inhibition curve
T2 construct: expressed in transfected cells; host or cells: Xenopus laevis oocytes injected with in vitro-transcribed capped cRNA (gene synthesised at Genewiz, pT7-TS vector)
T2 sequence (P25123 45-606 isoform P25123-1 limits assumed): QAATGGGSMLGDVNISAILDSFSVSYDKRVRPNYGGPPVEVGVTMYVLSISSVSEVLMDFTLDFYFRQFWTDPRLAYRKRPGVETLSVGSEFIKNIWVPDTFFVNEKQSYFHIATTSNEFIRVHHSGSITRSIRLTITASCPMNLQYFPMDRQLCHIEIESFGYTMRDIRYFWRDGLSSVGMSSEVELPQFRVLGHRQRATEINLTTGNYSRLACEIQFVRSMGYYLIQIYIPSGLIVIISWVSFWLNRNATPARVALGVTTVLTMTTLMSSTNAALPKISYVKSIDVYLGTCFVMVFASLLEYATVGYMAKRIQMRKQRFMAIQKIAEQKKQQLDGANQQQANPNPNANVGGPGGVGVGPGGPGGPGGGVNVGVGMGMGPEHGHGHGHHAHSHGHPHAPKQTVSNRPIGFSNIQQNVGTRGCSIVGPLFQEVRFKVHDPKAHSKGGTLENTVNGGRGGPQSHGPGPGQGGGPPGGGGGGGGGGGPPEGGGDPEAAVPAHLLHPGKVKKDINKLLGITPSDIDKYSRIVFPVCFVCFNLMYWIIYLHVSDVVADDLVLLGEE
From the text: (§1) The agonist and the drug were then washed off for 15 s and the oocyte exposed again to the same drug concentration for 15 s before increasing to the next concentration.
In a first step, we investigated the effect of lotilaner on the very well characterized D. melanogaster GABACl.

Rm-GABA [4] = target: T3, Rm-GABA (Rhipicephalus microplus, UniProt C8CGT5); test: Antagonist cumulative pre-application concentration-inhibition, TEVC on oocytes expressing Rm-GABA; assay type: cell-based; details: for nH (Hill coefficient): Rm-GABA, concentration-inhibition curve
DmS-GABA receptor [5] = target: T4, DmS-GABA receptor (Drosophila melanogaster, UniProt P25123); test: Co-application protocol (GABA plus drug, no pre-incubation), TEVC on oocytes expressing DmS-GABA; details: GABA 1 μM + 100 nM drug
T4 sequence (P25123 45-606 isoform P25123-1 limits assumed): T2 sequence (P25123 45-606 isoform P25123-1 limits assumed)

[6] = Biological activity of the enantiomers in vivo (data not shown)
Cl-GABAA α1β2γ2 [7] = target: T5, Cl-GABAA α1β2γ2 (Canis lupus familiaris, UniProt A0A2H4NNI8+A0A2H4NNJ3+E2RSQ0); test: Antagonist cumulative pre-application concentration-inhibition, TEVC on oocytes expressing Cl-GABAA α1β2γ2; assay type: cell-based
DmS-GABA receptor [8] = target: T4, DmS-GABA receptor; test: GABA concentration-response relationships for DmS-GABA in absence and presence of lotilaner; assay type: cell-based; design: expressed in transfected cells; host or cells: Xenopus laevis oocytes injected with in vitro-transcribed capped cRNA (gene synthesised at Genewiz, pT7-TS vector); details: normalized to initial 100 μM GABA application
From the text: Statistical comparisons were done using unpaired Student’s t test.

M. domestica GABACls = test system: M. domestica GABACls; design: method as in PMID 19944072; details: cited from earlier work
R. microplus GABACls = test system: R. microplus GABACls; design: method as in PMID 24365472; details: cited from earlier work
[9] = target: T2, DmS-GABA (wild type GABACl, RDLac); test: GABA concentration-activation, two-electrode voltage clamp on Xenopus oocytes expressing DmS-GABA; assay type: cell-based; details: GABA concentration-activation curve
Experimental: Capped cRNAs were synthesized (T7 mMessage mMachine kit, Ambion, Austin, TX, USA) from the linearized vectors containing the different subunits according to the manufacturer’s protocol. cRNA samples were stored at -80 °C until use. Oocytes were prepared and injected using standard procedures. Briefly, ovaries were harvested from Xenopus females that were deeply anesthetized by cooling down at 4 °C and with exposure to tricaine mesylate (3-aminobenzoic acid ethyl ester, methane sulfonate salt, 150 mg/l). […] Small pieces of ovary were isolated in a sterile Barth solution containing: NaCl (88 mM), KCl (1 mM), NaHCO3 (2.4 mM), HEPES (10 mM, pH 7.5), MgSO4·7H2O (0.82 mM), Ca(NO3)2·4H2O (0.33 mM), CaCl2·6H2O (0.41 mM), at pH 7.4, and supplemented with 20 μg/ml of kanamycin, 100 U/ml penicillin and 100 μg/ml streptomycin. Oocytes were microinjected using a Roboinject automatic injection system (Multi Channel Systems, Reutlingen, Germany) with 15–25 nl of cRNA solution (5–50 ng/μl) and then incubated at 18 °C in sterile filtered Barth solution. Recordings were made 1–6 days post-cRNA injection.
as §1
(1) and normalized to the fitted maximal current amplitude.

Cl-GABAA α1β2γ2 [10] = target: T5, Cl-GABAA α1β2γ2; test: GABA concentration-activation, two-electrode voltage clamp on Xenopus oocytes expressing Cl-GABAA α1β2γ2; assay type: cell-based
Experimental: Capped cRNAs were synthesized (T7 mMessage mMachine kit, Ambion, Austin, TX, USA) from the linearized vectors containing the different subunits according to the manufacturer’s protocol. cRNA samples were stored at -80 °C until use. Oocytes were prepared and injected using standard procedures. Briefly, ovaries were harvested from Xenopus females that were deeply anesthetized by cooling down at 4 °C and with exposure to tricaine mesylate (3-aminobenzoic acid ethyl ester, methane sulfonate salt, 150 mg/l). The animal care of Xenopus laevis (accreditation de l’animalerie HiQScreen N° 171) and sacrifice was done according to the guidance set by the veterinary authorities of the canton of Geneva based on art.18 on the animal welfare legislation (LPA, art. 141 Ordonnance sur la protection des animaux, OPAn) with the authorization N° 27479 GE/15/16). Small pieces of ovary were isolated in a sterile Barth solution containing: NaCl (88 mM), KCl (1 mM), NaHCO3 (2.4 mM), HEPES (10 mM, pH 7.5), MgSO4·7H2O (0.82 mM), Ca(NO3)2·4H2O (0.33 mM), CaCl2·6H2O (0.41 mM), at pH 7.4, and supplemented with 20 μg/ml of kanamycin, 100 U/ml penicillin and 100 μg/ml streptomycin. Oocytes were microinjected using a Roboinject automatic injection system (Multi Channel Systems, Reutlingen, Germany) with 15–25 nl of cRNA solution (5–50 ng/μl) and then incubated at 18 °C in sterile filtered Barth solution. […]

Rm-GABA [11] = target: T3, Rm-GABA; test: cell-based
Experimental: (§2) Capped cRNAs were synthesized (T7 mMessage mMachine kit, Ambion, Austin, TX, USA) from the linearized vectors containing the different subunits according to the manufacturer’s protocol. cRNA samples were stored at -80 °C until use. Oocytes were prepared and injected using standard procedures. Briefly, ovaries were harvested from Xenopus females that were deeply anesthetized by cooling down at 4 °C and with exposure to tricaine mesylate (3-aminobenzoic acid ethyl ester, methane sulfonate salt, 150 mg/l). The animal care of Xenopus laevis (accreditation de l’animalerie HiQScreen N° 171) and sacrifice was done according to the guidance set by the veterinary authorities of the canton of Geneva based on art.18 on the animal welfare legislation (LPA, art. 141 Ordonnance sur la protection des animaux, OPAn) with the authorization N° 27479 GE/15/16). Small pieces of ovary were isolated in a sterile Barth solution containing: NaCl (88 mM), KCl (1 mM), NaHCO3 (2.4 mM), HEPES (10 mM, pH 7.5), MgSO4·7H2O (0.82 mM), Ca(NO3)2·4H2O (0.33 mM), CaCl2·6H2O (0.41 mM), at pH 7.4, and supplemented with 20 μg/ml of kanamycin, 100 U/ml penicillin and 100 μg/ml streptomycin. Oocytes were microinjected using a Roboinject automatic injection system (Multi Channel Systems, Reutlingen, Germany) with 15–25 nl of cRNA solution (5–50 ng/μl) and then incubated at 18 °C in sterile filtered Barth solution. Recordings were made 1–6 days post-cRNA injection.
(§3) . In experiments in which the channel was challenged several times by GABA, enough time was allowed between applications for the channel to recover from desensitization. […]; 10 μM for DmS-GABA and DmR2-GABA; 50 μM for Rm-GABA; and 500 μM for Ls-GABA1). The agonist and the drug were then washed off for 15 s and the oocyte exposed again to the same drug concentration for 15 s before increasing to the next concentration.
(§4) . (1) and normalized to the fitted maximal current amplitude. […] . Table 1 and Additional file 3: Figure S1f). The Hill coefficients were higher than 1 for the five receptors (Table 1) indicating the presence of more than one agonist binding site per receptor. These values were obtained from peak current amplitudes. […]; Table 1 and Additional file 3: Figure S1f).

Ls-GABA1 [12] = target: T1, Ls-GABA1; test: cell-based
Experimental: as §2, §3, §4

T5 sequence (E2RSQ0 entry or part of it): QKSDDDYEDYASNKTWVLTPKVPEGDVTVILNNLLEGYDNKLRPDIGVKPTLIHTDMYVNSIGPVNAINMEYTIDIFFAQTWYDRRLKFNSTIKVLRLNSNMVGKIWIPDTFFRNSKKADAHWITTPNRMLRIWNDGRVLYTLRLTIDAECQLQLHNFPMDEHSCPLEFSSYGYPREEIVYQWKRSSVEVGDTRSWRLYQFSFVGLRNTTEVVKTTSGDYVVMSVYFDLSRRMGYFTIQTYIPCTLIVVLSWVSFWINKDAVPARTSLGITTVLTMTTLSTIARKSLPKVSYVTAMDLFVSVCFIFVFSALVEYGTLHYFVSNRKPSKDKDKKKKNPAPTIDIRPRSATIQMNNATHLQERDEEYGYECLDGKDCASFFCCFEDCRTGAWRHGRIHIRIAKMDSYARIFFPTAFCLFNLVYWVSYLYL
T5 sequence (A0A2H4NNJ3 entry or part of it): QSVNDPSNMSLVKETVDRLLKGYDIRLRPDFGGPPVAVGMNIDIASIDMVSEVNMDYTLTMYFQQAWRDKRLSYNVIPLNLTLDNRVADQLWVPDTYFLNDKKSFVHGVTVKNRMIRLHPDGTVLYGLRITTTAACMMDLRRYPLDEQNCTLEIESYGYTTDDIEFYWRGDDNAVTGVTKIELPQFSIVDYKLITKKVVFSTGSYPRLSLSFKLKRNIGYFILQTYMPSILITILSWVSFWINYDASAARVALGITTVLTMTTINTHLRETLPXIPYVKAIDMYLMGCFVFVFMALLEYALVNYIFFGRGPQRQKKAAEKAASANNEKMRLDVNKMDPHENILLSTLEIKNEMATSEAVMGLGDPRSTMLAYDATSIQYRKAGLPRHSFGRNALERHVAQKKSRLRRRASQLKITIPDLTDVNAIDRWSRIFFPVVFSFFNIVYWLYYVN
T5 sequence (A0A2H4NNI8 entry or part of it): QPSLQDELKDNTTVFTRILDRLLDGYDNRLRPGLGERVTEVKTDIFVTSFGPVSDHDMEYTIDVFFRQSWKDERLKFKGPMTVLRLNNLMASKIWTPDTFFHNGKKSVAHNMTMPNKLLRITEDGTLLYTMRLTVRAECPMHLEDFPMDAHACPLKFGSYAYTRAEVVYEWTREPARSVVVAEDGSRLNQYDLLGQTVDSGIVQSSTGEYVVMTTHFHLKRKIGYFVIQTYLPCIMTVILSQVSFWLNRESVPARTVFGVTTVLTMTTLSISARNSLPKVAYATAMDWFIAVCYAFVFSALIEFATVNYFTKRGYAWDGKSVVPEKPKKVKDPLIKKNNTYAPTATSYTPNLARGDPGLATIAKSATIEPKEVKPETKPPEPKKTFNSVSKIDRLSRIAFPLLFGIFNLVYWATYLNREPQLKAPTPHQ
T3 sequence (C8CGT5 entry or part of it): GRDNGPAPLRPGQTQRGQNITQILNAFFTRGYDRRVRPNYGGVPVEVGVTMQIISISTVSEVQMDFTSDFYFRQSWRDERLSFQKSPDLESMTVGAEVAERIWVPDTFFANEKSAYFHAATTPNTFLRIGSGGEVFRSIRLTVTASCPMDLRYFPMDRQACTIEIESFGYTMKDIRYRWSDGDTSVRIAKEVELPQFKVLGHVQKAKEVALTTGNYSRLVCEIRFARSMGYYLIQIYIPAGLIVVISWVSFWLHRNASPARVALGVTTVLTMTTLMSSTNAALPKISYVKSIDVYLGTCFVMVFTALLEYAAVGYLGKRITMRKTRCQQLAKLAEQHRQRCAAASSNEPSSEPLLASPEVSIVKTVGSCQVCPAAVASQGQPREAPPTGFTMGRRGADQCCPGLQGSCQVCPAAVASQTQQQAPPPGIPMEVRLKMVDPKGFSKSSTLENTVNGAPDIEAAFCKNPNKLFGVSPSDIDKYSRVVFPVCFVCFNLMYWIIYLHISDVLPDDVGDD
T1 sequence (A0A2H4NNJ4 entry or part of it): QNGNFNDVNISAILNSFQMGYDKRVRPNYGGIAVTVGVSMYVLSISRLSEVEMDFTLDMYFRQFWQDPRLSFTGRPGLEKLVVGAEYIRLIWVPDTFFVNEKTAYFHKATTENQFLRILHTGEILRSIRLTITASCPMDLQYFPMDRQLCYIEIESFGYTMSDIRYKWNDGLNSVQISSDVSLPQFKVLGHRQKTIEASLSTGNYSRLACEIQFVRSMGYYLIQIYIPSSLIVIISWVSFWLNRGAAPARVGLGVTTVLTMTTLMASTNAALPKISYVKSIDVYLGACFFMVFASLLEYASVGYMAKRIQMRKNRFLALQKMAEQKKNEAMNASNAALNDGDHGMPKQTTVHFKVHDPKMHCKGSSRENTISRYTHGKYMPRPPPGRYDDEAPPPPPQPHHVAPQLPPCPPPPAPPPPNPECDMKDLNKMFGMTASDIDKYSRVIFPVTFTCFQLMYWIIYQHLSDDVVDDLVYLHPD

N#Cc1nn(-c2c(Cl)cc(C(F)(F)F)cc2Cl)c(N)c1[S+]([O-])C(F)(F)F (stereo not drawn) [Fipronil, fipronil, reference compound]
loss of potency [1]: 18 fold
IC50 (Ls-GABA1 [2]): 0.165 ± 0.0118 µM
nH (Hill coefficient) (Ls-GABA1 [2]; Ls-GABA1): -0.78 ± 0.04
IC50 [3]: 0.0276 ± 0.00171 µM
nH (Hill coefficient) ([3]; DmS-GABA): -0.85 ± 0.04
IC50 (Rm-GABA [4]): 0.0256 ± 0.00225 µM
nH (Hill coefficient) (Rm-GABA [4]): -0.56 ± 0.03

ClC1=C(Cl)[C@]2(Cl)[C@@H]3[C@@H]4C[C@@H]([C@H]5O[C@@H]45)[C@@H]3[C@@]1(Cl)C2(Cl)Cl [Dieldrin, dieldrin, reference compound]
IC50 [3]: 4.17 ± 0.92 µM
nH (Hill coefficient) ([3]; DmS-GABA): -0.45 ± 0.05

Cc1cc(C2=NO[C@](c3cc(Cl)c(Cl)c(Cl)c3)(C(F)(F)F)C2)sc1C(=O)NCC(=O)NCC(F)(F)F [AHC-2229544]
slight decrease in both peaks and tails currents (DmS-GABA receptor [5]): < 10%
less biological activity than the S-enantiomer [6]: 100 ×
nH (Hill coefficient) ([3]; DmS-GABA): -0.30 ± 0.03
inhibition of the GABA-induced current ([3]; DmS-GABA, up to 0.3 μM): no inhibition
IC50 ([3]; read-out: IC50): 0.959 ± 0.268 µM

Cc1cc(C2=NO[C@@](c3cc(Cl)c(Cl)c(Cl)c3)(C(F)(F)F)C2)sc1C(=O)NCC(=O)NCC(F)(F)F [Lotilaner, lotilaner]
IC50 (Cl-GABAA α1β2γ2 [7]): > 10 µM
nH (Hill coefficient) (Cl-GABAA α1β2γ2 [7]; Cl-GABAA α1β2γ2, concentration-inhibition curve): -0.09 ± 0.02
inhibitory effect / activity on dog GABAA receptor (Cl-GABAA α1β2γ2 [7]; Cl-GABAA α1β2γ2, up to the highest dose tested, 10 μM): no activity; also recorded: No obvious inhibitory effect
potentiation of peak current at first co-application (DmS-GABA receptor [5]; on average): > 30%
potentiation of tail current at first co-application (DmS-GABA receptor [5]; on average): > 10%
IC50 (Ls-GABA1 [2]): 0.0524 ± 0.00454 µM
fold lower IC50 value compared to fipronil (Ls-GABA1 [2]; Ls-GABA1): 3 fold
nH (Hill coefficient) (Ls-GABA1 [2]; Ls-GABA1): -0.75 ± 0.04
GABA current inhibition ([3]; DmS-GABA, GABA 10 μM, lotilaner concentrations > 1 μM): almost complete GABA current inhibition
nH (Hill coefficient) ([3]; DmS-GABA): -0.64 ± 0.03
IC50 ([3]; read-out: IC50): 0.0238 ± 0.00187 µM
GABA Rmax in presence of 0.1 μM lotilaner (DmS-GABA receptor [8]; lotilaner 0.1 μM): 50.98 ± 0.47%
GABA Rmax in presence of 1 μM lotilaner (DmS-GABA receptor [8]; lotilaner 1 μM): 13.65 ± 1.12%
IC50 (Rm-GABA [4]): 0.0368 ± 0.00439 µM
nH (Hill coefficient) (Rm-GABA [4]): -0.47 ± 0.03

Cc1cc(C2=NOC(c3cc(Cl)cc(Cl)c3)(C(F)(F)F)C2)ccc1C(=O)NCC(=O)NCC(F)(F)F (stereo not drawn) [fluralaner]
higher inhibitor potency over fipronil (M. domestica GABACls): 5 fold
higher inhibitor potency over fipronil (R. microplus GABACls): 5 fold

NCCCC(=O)O [GABA, γ-aminobutyric acid]
nH (Hill coefficient) [9]: 1.57 ± 0.15
EC50 (Cl-GABAA α1β2γ2 [10]; EC50 (μM), natural agonist GABA, ± SEM): 1.8 ± 0.14 µM
nH (Hill coefficient) (Cl-GABAA α1β2γ2 [10]; GABA concentration-activation curve): 1.31 ± 0.12
EC50 (Rm-GABA [11]): 50 ± 0.76 µM
nH (Hill coefficient) (Rm-GABA [11]; Rm-GABA, GABA concentration-activation curve): 2.27 ± 0.19
EC50 (Ls-GABA1 [12]): 393 ± 11.1 µM
nH (Hill coefficient) (Ls-GABA1 [12]; Ls-GABA1, GABA concentration-activation curve): 1.35 ± 0.04
GABA Rmax (DmS-GABA receptor [8]; GABA alone): 97.706 ± 2.45%
